Data published in ChEMBL document CHEMBL3045600, “Synthesis and Fungicidal Activities of Phenoxyphenyl Alkoxyiminoacetamide Derivatives” (J Pestic Sci, 1998).

Assays:
Assay type in all cases: functional
Thanatephorus cucumeris [1] = experiment: Fungicidal activity against Thanatephorus cucumeris assessed as rice sheath blight disease control at 31.3 ppm foliar application for 24 hr before inoculation at 26 +- 2 measured after 5 days by preventive manner
Thanatephorus cucumeris [2] = experiment: Fungicidal activity against Thanatephorus cucumeris assessed as rice sheath blight disease control at 7.8 ppm foliar application for 24 hr before inoculation at 26 +- 2 measured after 5 days by preventive manner
Thanatephorus cucumeris [3] = experiment: Fungicidal activity against Thanatephorus cucumeris assessed as rice sheath blight disease control at 2 ppm foliar application for 24 hr before inoculation at 26 +- 2 measured after 5 days by preventive manner
[4] = test system: Pseudoperonospora cubensis; experiment: Fungicidal activity against Pseudoperonospora cubensis assessed as cucumber downy mildew disease control at 125 ppm foliar application 24 hr before inoculation on upper surface of leaf by preventive manner
[5] = test system: Pseudoperonospora cubensis; experiment: Fungicidal activity against Pseudoperonospora cubensis assessed as cucumber downy mildew disease control at 31.3 ppm foliar application 24 hr before inoculation on upper surface of leaf by preventive manner
[6] = test system: Pseudoperonospora cubensis; experiment: Fungicidal activity against Pseudoperonospora cubensis assessed as cucumber downy mildew disease control at 7.8 ppm foliar application 24 hr before inoculation on upper surface of leaf by preventive manner
[7] = test system: Pseudoperonospora cubensis; experiment: Fungicidal activity against Pseudoperonospora cubensis assessed as cucumber downy mildew disease control at 2 ppm foliar application 24 hr before inoculation on upper surface of leaf by preventive manner
Podosphaera fuliginea [8] = experiment: Fungicidal activity against Podosphaera fuliginea assessed as cucumber powdery mildew control under greenhouse at 125 ppm foliar application 24 hr before inoculation on upper surface of leaf at 23 +/- 2 degC by preventive manner
Podosphaera fuliginea [9] = experiment: Fungicidal activity against Podosphaera fuliginea assessed as cucumber powdery mildew control under greenhouse at 31.3 ppm foliar application 24 hr before inoculation on upper surface of leaf at 23 +/- 2 degC by preventive manner
Podosphaera fuliginea [10] = experiment: Fungicidal activity against Podosphaera fuliginea assessed as cucumber powdery mildew control under greenhouse at 7.8 ppm foliar application 24 hr before inoculation on upper surface of leaf at 23 +/- 2 degC by preventive manner
Podosphaera fuliginea [11] = experiment: Fungicidal activity against Podosphaera fuliginea assessed as cucumber powdery mildew control under greenhouse at 2 ppm foliar application 24 hr before inoculation on upper surface of leaf at 23 +/- 2 degC by preventive manner
Thanatephorus cucumeris [12] = experiment: Fungicidal activity against Thanatephorus cucumeris assessed as rice sheath blight disease control at 125 ppm foliar application for 24 hr before inoculation at 26 +- 2 measured after 5 days by preventive manner

| SMILES | Activity (Thanatephorus cucumeris [1]) | Activity (Thanatephorus cucumeris [2]) | Activity (Thanatephorus cucumeris [3]) | Activity [4] | Activity [5] | Activity [6] | Activity [7] | Activity (Podosphaera fuliginea [8]) | Activity (Podosphaera fuliginea [9]) | Activity (Podosphaera fuliginea [10]) | Activity (Podosphaera fuliginea [11]) | Activity (Thanatephorus cucumeris [12]) |
| --- | --- | --- | --- | --- | --- | --- | --- | --- | --- | --- | --- | --- |
| CNC(=O)/C(=N/OC)c1ccccc1C(=O)c1ccccc1 | <70% | <70% | <70% | <70% | <70% | <70% | <70% | <70% | <70% | <70% | <70% | <70% |
| CNC(=O)/C(=N/OC)c1cc(F)ccc1Oc1ccccc1 | 70% | 70% | 70% | 70% | 70% | 70% | 70% | 70% | 70% | 70% | 70% | 70% |
| CNC(=O)/C(=N/OC)c1ccc(Oc2ccccc2)cc1 | <70% | <70% | <70% | <70% | <70% | <70% | <70% | 70% | 70% | 70% | 70% | <70% |
| CNC(=O)/C(=N/OC)c1ccccc1SCc1ccccc1 | 70% | 70% | 70% | 70% | 70% | 70% | 70% | 70% | 70% | 70% | 70% | 70% |
| CNC(=O)/C(=N/OC)c1ccccc1COc1ccccc1 | <70% | <70% | <70% | <70% | <70% | <70% | <70% | 70% | 70% | 70% | 70% | <70% |
| CNC(=O)/C(=N/OC)c1ccccc1OCc1ccccc1 | 70% | 70% | 70% | 70% | 70% | 70% | 70% | 70% | 70% | 70% | 70% | 70% |
| CNC(=O)/C(=N/OC)c1ccccc1/C=C\c1ccccc1 | 70% | 70% | 70% | 70% | 70% | 70% | 70% | 70% | 70% | 70% | 70% | 70% |
| CNC(=O)/C(=N/O)c1ccccc1Oc1ccccc1 | <70% | <70% | <70% | <70% | <70% | <70% | <70% | <70% | <70% | <70% | <70% | <70% |
| CNC(=O)/C(=N/OC)c1cc(C)ccc1Oc1ccccc1 | 70% | 70% | 70% | 70% | 70% | 70% | 70% | 70% | 70% | 70% | 70% | 70% |
| CO/N=C(/C(=O)N(C)C)c1ccccc1Oc1ccccc1 | 70% | 70% | 70% | <70% | <70% | <70% | <70% | 70% | 70% | 70% | 70% | 70% |
| CNC(=O)/C(=N/OC)c1ccccc1C(=O)Oc1ccccc1 | <70% | <70% | <70% | <70% | <70% | <70% | <70% | 70% | 70% | 70% | 70% | <70% |
